Measurements as given in PMC12598851, “Exploiting Avidity Effects for the Discovery of Low Affinity Protein-Binding Fragments” (Journal of Medicinal Chemistry, 2025).
Values joined by “and” are separate entries in the source; they are usually repeats but may differ in a detail not shown here. Identical values can stand only once. “Also recorded” adds a separate entry of the source.

Experiments:
Streptavidin (SA) = target: T1, Streptavidin (SA) (Streptomyces avidinii, UniProt P22629); assay: SPR, soluble compound binding to immobilized streptavidin; settings: soluble mini-PEG attached compound, immobilized SA; read-out: KD (SPR)
T1 construct: purchased
T1 sequence (P22629 25-183, species assumed): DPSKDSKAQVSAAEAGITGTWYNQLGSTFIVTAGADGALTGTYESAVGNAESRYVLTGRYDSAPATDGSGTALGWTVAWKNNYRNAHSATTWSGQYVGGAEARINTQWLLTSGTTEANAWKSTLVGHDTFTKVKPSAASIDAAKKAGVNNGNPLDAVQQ
Protocol: The SPR binding affinity testing was conducted using the BIAcore 1K system (Cytiva) with BIAcore Insight Control Software. Streptavidin (50 μg/mL in 10 mM pH 5.0 NaOAc) was immobilized on a CM5 sensor chip (Cytiva) via amide coupling, using HBS-EP+ (10 mM HEPES, 150 mM NaCl, 3 mM EDTA, and 0.05% v/v Surfactant P20) as the immobilization buffer. Approximately 1000 RU of immobilization was achieved. Testing compounds were evaluated using the multiple-cycle kinetic/affinity method in PBS-P+ running buffer (20 mM phosphate buffer, 2.7 mM KCl, 137 mM NaCl, and 0.05% Surfactant P20), with a 200 s association time, 200 s dissociation time, and a flow rate of 45 μL/min. Binding affinities for the testing compounds were determined by fitting the sensor grams to both the 1:1 binding kinetics and steady-state affinity models provided in the BIAcore Insight Evaluation Software.

[1] = target: T2, tetrameric streptavidin (SA-647) (Streptomyces avidinii, UniProt P22629); assay: Bead pull-down: SA-647 retained by compound-displaying TentaGel beads, plate reader; assay type: binding
T2 construct: purchased ThermoFisher S3235
T2 sequence (P22629 37-163 limits assumed): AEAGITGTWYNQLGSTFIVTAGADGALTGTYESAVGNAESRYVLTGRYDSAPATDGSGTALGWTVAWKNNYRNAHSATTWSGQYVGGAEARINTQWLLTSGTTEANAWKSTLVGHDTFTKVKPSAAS
Description: Compounds 2 and 3 were then constructed on 10 μm TentaGel beads via straightforward solid-phase synthesis, along with acetylated beads, which as a “blank” (Figure c). TentaGel beads consist of an amino-polystyrene core onto which is grafted a thick layer of amine-terminated PEG chains. An additional mini-PEG spacer was incorporated prior to coupling the compounds to further improve spatial accessibility and aqueous display of the compounds (see Experimental Section for detailed synthesis). The beads were incubated with AlexaFluor 647-conjugated SA (SA-647) in phosphate-buffered saline supplemented with 0.05% Tween 20 (PBST) for 1 h at room temperature in the dark. Following incubation, the beads were washed thoroughly (see Experimental Section for a detailed protocol), then resuspended in PBST. The amount of fluorescent SA retained by the resin was analyzed using a Tecan multiwell plate reader equipped with appropriate excitation and emission filters (excitation at 650 nm, emission at 665 nm).
General notes: • At each step, contents were mixed by pipetting up and down 3–5 times. • All steps following the addition of SA-647 were conducted in the dark. • SA-647 and mSA-647 were purchased from commercial sources; (SA-647: ThermoFisher cat#S3235, mSA-647: Millipore SAE178).
A 96-well Multiscreen hydrophilic assay plate (MilliporeSigma, MSBVN12) was activated by treating each well with 150 μL of 70% (v/v) ethanol in water. The solvent was removed under vacuum, and the wells were washed with PBST (3 × 150 μL). Fresh PBST (150 μL) was then added to each well.
The plate was drained and washed again with PBST (3 × 150 μL), followed by the addition of 150 μL PBST per well. Plates were shaken overnight at ambient temperature on an orbital plate shaker.
The next day, wells were drained and incubated with 150 μL of a 1:1 (v/v) solution of PBST:PBS blocking buffer (Thermo Scientific, 37538) for 1 h at room temperature. After removal of the blocking buffer, 100 μL PBST was added to each well and mixed thoroughly. A 20 μL aliquot from each well was transferred to a black 384-well flat-bottom plate (Corning, 3820) for background (blank) measurements.
The remaining PBST was removed, and the beads were incubated with SA-647 (500 nM in 1:1 PBST/blocking buffer, 150 μL per well) for 1 h at room temperature. After incubation, wells were washed with PBST while shaking (3 × 20 min). A final 150 μL PBST wash was performed and drained. Fresh PBST (80 μL) was added to each well, and the contents were transferred to labeled PCR tubes. Samples were briefly vortexed and mixed by pipetting.
Each sample was transferred to a black 384-well plate in triplicate (3 × 20 μL per well). The plate was sealed with a foil sticker and centrifuged at 250g for 1 min. Fluorescence intensity was measured using a TECAN plate reader. Background fluorescence (from blank wells) was subtracted prior to further data analysis.

CC(=O)N(Cc1cccnc1)Cc1nc(C(=O)N(C)CC(=O)NCCOCCOCC(=O)NCC(N)=O)cs1 [Compound 2]
Kd (Streptavidin (SA)): 706 µM
Fluorescence intensity, Average ([1]; SA-647 500 nM, 12 replicates, after background subtraction, Z' calculation): 14647
binding of SA-647 to bead-displayed compound (fluorescence) ([1]; SA-647 500 nM, 1 h, PBST, room temperature, after washing): readily detectable; also recorded: strong binding
Fluorescence intensity, individual replicate ([1]; SA-647 500 nM, replicates 1-12, after background subtraction, Z' calculation): 15421 and 12975 and 13104 and 12492 and 14298 and 14769 and 15364 and 16337 and 17794 and 14546 and 14869 and 13797
fluorescence after 24 h in buffer lacking protein compared with directly after washing ([1]; beads washed, resuspended in PBST lacking protein for 24 h): almost identical
retained SA-647 at 30% ligand density ([1]; compound linked to only 30% of the sites on the beads, SA-647 500 nM): almost undetectable above background
dependence of SA-647 retention on ligand density ([1]; site functionalization 100% to 5%, SA-647 500 nM): strongly density-dependent
